From ChEMBL document CHEMBL1201862, “PubChem BioAssay data set” (2004)
The source made the active and inactive calls.

How the values were obtained:
[1] = intracellular Trypanosoma cruzi inhibitors in host cells – cell-based, plate reader, cherry-pick samples, set 3, dose response (AID 651818); format: functional;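 further: compounds incubated with infected cells for about four days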
[2] = inhibitors of firefly luciferase expression or activity, dose response, H4 neuroglioma cells, luminescence (AID 1990); format: functional, cell-based
[3] = Luminescence Cell-Based Dose Response HTS to Identify Inhibitors of 5'UTR Stem-Loop Driven Prion Protein mRNA Translation in H4 Neuroglioblastoma Cells. [Related pubchem assays: 1827 (Project Summary), 1813 (Primary HTS)]; format: functional
[4] = inhibitors of SNCA 5'UTR-driven reporter translation, confirmation, H4 neuroglioma cells, luminescence (AID 1988); format: functional, cell-based
Nonstructural protein 1 = Nonstructural protein 1 (Influenza A virus, UniProt Q194T2); format: functional, Influenza A virus (A/California/07/2009(H1N1))
[5] = Luminescent dose response cell-based high throughput screening assay for inhibitors of the Janus kinase 2 mutant JAK2V617F. [Related pubchem assays: 1446 (Primary screen.), 1521 (Confirmation assay.), 1486 (Counter screen.)]; format: functional
[6] = biological target: T1, Carboxy-terminal domain RNA polymerase II polypeptide A small phosphatase 1 (Homo sapiens, UniProt Q9GZU7); assay: inhibitors of CTDSP1, concentration-response testing, biochemical assay, absorbance-based, actives from ultra-high-throughput screening (AID 540297); format: functional
T1 sequence (Q9GZU7 whole entry): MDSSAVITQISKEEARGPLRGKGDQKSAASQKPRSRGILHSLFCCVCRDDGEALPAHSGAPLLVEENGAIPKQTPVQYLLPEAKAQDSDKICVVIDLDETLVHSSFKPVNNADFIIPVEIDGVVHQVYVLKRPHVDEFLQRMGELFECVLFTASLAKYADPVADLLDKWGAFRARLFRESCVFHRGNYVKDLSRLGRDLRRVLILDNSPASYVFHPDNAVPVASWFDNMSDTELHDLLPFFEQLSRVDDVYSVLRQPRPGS

[7] = biological target: T2, Low molecular weight phosphotyrosine protein phosphatase (Homo sapiens, UniProt P24666); format: functional; details: read-out: IC50_Mean;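 further: Dose-response confirmation assay measuring inhibition of LMPTP enzyme activity by fluorescence intensity read-out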
T2 sequence (P24666 whole entry): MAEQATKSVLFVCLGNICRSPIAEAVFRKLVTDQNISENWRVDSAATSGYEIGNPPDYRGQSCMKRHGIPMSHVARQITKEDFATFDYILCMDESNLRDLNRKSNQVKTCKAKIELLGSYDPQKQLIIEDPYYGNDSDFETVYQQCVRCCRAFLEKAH

SN12K1 = assay: cells; format: functional; details: Homo sapiens
P388 = assay: cells; format: functional; details: Mus musculus
P388/ADR = assay: cells; format: functional; details: Mus musculus
[8] = biological target: Glucose-6-phosphate 1-dehydrogenase (Homo sapiens, UniProt P11413); assay: human G6PD enzyme inhibitors, dose response, selectivity assay for P. falciparum G6PD inhibitor project, biochemical, fluorescence (AID 504792); format: functional
[9] = biological target: T3, Tyrosyl-DNA phosphodiesterase 2 (Homo sapiens, UniProt O95551); assay: human TDP2 enzyme inhibitors, dose response, biochemical, epi absorbance, IC50 (AID 743297)
T3 sequence (O95551 whole entry): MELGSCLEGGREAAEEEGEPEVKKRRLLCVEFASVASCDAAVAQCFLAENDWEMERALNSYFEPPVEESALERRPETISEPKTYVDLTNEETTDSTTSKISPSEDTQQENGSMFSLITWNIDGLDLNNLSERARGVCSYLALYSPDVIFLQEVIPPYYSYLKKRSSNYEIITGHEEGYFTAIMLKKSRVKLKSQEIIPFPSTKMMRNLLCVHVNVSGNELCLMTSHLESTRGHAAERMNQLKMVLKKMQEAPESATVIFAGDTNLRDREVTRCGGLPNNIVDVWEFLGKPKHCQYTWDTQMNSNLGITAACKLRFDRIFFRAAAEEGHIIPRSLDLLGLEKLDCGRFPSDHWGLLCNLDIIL

[10] = biological target: T4, Corticotropin-releasing factor receptor 2/Corticotropin-releasing factor-binding protein (Homo sapiens, UniProt P24387+Q13324); assay: Dose Response confirmation of uHTS hits for small molecule antagonists of the CRF-binding protein and CRF-R2 receptor complex.; format: functional; details: read-out: IC50_Mean
T4 sequence (Q13324 whole entry): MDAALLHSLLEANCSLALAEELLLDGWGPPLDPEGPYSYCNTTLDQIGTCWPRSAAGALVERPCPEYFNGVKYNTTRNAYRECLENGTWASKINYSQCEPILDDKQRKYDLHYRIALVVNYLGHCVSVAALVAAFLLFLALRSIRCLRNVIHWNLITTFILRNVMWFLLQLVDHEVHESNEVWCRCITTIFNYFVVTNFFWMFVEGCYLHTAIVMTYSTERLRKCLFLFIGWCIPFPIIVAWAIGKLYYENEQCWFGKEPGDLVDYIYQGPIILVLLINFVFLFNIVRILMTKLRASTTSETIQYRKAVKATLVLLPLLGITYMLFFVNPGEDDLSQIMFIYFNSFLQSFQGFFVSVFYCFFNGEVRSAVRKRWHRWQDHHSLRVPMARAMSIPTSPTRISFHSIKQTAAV
T4 sequence (P24387 whole entry): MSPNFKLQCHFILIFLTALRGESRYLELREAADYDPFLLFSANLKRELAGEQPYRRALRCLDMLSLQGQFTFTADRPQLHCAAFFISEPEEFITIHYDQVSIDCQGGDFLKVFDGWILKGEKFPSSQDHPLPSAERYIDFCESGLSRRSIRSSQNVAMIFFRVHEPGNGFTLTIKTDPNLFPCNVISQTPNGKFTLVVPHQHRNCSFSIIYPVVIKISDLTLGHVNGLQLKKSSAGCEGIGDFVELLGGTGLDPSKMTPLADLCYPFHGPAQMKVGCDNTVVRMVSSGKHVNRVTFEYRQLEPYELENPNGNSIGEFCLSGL

[11] = biological target: T4, Corticotropin-releasing factor receptor 2/Corticotropin-releasing factor-binding protein; assay: activators of CRF receptor 2 with binding protein – uHTS hits, confirmation (AID 602473); format: functional; details: read-out: EC50_Mean
H9c2 = assay: cells; format: functional, cell-based; details: Rattus norvegicus, H9c2, Myocardium;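 further: confirmatory concentration-response retest of ultra-high-throughput screening hits for modulation of myocardial damage; cell death induced by hydrogen peroxide oxidative stress; compound pretreatment for 60 min then peroxide exposure for 2 h; potency is for protecting the cells against peroxide damage rather than for killing them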
[12] = A549 cell cytotoxicity, dose response, cytotoxicity control, plate reader, cherry-pick, antagonist series (AID 743412); format: functional, cell-based
[13] = LGR2 antagonists, dose response, cell-based, HEK293, CRE-luciferase reporter, cherry pick, set 2 (AID 743343); format: functional;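 further: transfected cells were stimulated with diluted bursicon conditioned medium after compound addition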
[14] = HEK293 cell cytotoxicity, dose response, cytotoxicity control, plate reader, cherry-picked samples (AID 743446); format: functional, cell-based
Large T antigen = Large T antigen (Simian virus 40, UniProt P03070); format: functional, Betapolyomavirus macacae;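 further: Confirmatory-stage PubChem screen for compounds that inhibit SV40 T antigen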
Cytochrome P450 2D6 = Cytochrome P450 2D6 (Homo sapiens, UniProt P10635);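 further: CYP2D6 member of a cytochrome P450 panel assay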
[15] = HepG2 cell cytotoxicity, dose response, cytotoxicity control, plate reader, cherry-pick, antagonist series (AID 743416); format: functional, cell-based
[16] = MC4R antagonists, dose response, counter-screen for LGR2 antagonist project, cell-based, plate reader, cherry pick (AID 743444); format: functional;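 further: transfected HEK 293 cells stimulated with alpha-MSH peptide; potency of inhibitors of the alpha-MSH evoked signal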

Sequence of Nonstructural protein 1 (Q194T2 whole entry): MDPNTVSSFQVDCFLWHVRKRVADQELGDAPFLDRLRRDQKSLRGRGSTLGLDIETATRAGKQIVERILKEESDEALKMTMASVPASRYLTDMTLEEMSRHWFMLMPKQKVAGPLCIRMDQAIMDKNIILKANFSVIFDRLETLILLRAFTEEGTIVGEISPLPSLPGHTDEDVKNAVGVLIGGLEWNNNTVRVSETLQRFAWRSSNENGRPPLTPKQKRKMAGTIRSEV
Sequence of Glucose-6-phosphate 1-dehydrogenase (P11413 whole entry): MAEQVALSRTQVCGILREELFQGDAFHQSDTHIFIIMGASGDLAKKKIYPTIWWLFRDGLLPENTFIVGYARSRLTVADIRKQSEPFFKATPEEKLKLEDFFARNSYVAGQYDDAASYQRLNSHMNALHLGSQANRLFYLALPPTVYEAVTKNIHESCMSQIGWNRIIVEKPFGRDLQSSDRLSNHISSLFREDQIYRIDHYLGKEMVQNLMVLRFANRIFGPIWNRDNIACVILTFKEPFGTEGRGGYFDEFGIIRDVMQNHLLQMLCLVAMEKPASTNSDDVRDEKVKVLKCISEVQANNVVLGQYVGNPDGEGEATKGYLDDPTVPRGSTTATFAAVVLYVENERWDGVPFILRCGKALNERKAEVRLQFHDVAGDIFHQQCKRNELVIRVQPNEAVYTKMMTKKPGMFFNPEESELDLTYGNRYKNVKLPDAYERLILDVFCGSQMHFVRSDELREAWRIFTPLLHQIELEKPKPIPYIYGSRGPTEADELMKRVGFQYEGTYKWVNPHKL
Sequence of Large T antigen (P03070 whole entry): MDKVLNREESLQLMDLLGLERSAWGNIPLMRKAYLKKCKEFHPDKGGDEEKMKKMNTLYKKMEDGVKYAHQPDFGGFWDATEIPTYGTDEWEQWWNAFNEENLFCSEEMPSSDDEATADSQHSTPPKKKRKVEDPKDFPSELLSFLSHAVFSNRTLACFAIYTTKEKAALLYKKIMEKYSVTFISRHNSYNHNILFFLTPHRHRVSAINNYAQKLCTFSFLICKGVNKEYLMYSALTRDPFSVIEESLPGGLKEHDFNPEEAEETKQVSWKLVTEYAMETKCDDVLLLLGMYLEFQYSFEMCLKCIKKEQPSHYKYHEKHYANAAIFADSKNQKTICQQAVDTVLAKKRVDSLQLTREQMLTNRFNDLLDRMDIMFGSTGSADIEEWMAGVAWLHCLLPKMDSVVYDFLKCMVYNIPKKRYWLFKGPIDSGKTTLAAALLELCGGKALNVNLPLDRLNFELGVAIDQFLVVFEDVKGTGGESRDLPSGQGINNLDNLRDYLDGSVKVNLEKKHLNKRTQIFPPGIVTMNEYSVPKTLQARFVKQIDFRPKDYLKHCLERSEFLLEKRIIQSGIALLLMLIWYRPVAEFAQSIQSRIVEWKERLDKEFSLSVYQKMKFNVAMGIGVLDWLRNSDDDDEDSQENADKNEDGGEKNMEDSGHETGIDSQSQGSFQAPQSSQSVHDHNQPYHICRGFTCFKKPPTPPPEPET
Sequence of Cytochrome P450 2D6 (P10635 whole entry): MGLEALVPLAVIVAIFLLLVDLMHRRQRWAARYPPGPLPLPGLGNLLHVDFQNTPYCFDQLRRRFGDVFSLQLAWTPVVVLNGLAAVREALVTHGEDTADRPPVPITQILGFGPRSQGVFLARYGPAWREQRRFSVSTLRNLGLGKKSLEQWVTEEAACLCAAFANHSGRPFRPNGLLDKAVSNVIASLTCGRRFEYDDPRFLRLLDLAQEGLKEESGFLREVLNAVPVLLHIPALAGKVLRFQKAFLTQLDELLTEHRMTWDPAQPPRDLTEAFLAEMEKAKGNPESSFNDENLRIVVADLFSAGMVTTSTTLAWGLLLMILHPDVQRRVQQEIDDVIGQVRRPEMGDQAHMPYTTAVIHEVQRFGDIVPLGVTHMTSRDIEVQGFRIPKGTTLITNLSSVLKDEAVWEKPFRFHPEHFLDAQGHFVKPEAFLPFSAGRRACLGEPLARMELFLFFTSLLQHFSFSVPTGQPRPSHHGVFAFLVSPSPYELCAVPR

SMILES: C[C@H](CO)N1C[C@H](C)[C@H](CN(C)Cc2ccc(-c3ccccc3)cc2)Oc2c(NC(=O)Nc3ccc(C(F)(F)F)cc3)cccc2C1=O
- AC50 [1]: 6 µM (active)

SMILES: O=C(CSc1n[nH]c(-c2ccccn2)n1)Nc1ccc(F)cc1
- EC50 [2]: 12.6 µM (active)
- EC50 [3]: 11.5 µM (active)
- EC50 [4]: > 120 µM (not active)
- IC50 (Nonstructural protein 1): 5.65 µM (active)

SMILES: Cc1c(N/N=C2\C(=O)NC(=O)N(c3ccc(Br)cc3)C2=O)c(=O)n(-c2ccccc2)n1C
- IC50 (Nonstructural protein 1): 6.25 µM (active)

SMILES: Oc1ccc(/C=N/N2CCN(C3c4ccccc4-c4ccccc43)CC2)cc1O
- IC50 [5]: 3.62 µM (active)

SMILES: Cc1noc(C)c1S(=O)(=O)Nc1ccc2c(c1)CC(=O)N([C@H](C)CO)C[C@@H](C)[C@H](CN(C)Cc1ccc(Oc3ccccc3)cc1)O2
- AC50 [1]: 6.34 µM (active)

SMILES: O=C(Nc1ccc(S(=O)(=O)Nc2nccs2)cc1)c1nn(-c2ccc(F)cc2)ccc1=O
- IC50 [6]: 4.55 µM (active)
- IC50 [7]: 22.3 µM (inactive)

SMILES: CCOC(=O)Nc1ccc2c(c1)N(C(=O)CCN(CC)CC)c1ccccc1S2 [ETHACIZINE]
- GI50 (SN12K1): 33.6 µM (inactive)
- GI50 (P388): 9.46 µM (inactive)

SMILES: CN(C)CC1CCCC(CN(C)C)C1=O (configuration not stated)
- GI50 (P388/ADR): 0.0164 µM (active)
- GI50 (SN12K1): 16.3 µM (inactive)
- GI50 (P388): 0.0614 µM (active)

SMILES: CC1CN(c2ccccc2)NC1=O (configuration not stated)
- IC50 [8]: 41.2 µM (inactive)

SMILES: CC1=C2C(O)C(C(C)C(=O)NC(C)C)CCC2(C)C=CC1=O (configuration not stated)
- GI50 (P388/ADR): > 100 µM (inactive)
- GI50 (SN12K1): > 100 µM (inactive)
- GI50 (P388): > 100 µM (inactive)

SMILES: Cc1ccccc1OCC(=O)NCC(=O)OCC(=O)c1ccc([N+](=O)[O-])cc1
- IC50 [8]: > 80 µM (inactive)

SMILES: CC1=NN(c2ccc(C)c(C)c2)C(=O)/C1=C/c1ccc2c(c1)n(C)c(=O)n2C
- IC50 [9]: > 128 µM (inactive)

SMILES: COC1(OC)C=CC(=O)C=C1NC(=O)c1ccccc1OC(C)=O
- IC50 [8]: > 80 µM (inactive)
- IC50 [10]: > 47.1 µM (inactive)
- EC50 [11]: > 53 µM (inactive)

SMILES: CC(=O)Nc1cc2c(cc1[N+](=O)[O-])-c1ccccc1C2O (configuration not stated)
- IC50 [8]: > 80 µM (inactive)

SMILES: Cc1ccc(N2C(=O)C3CSCN3C2=O)cc1 (configuration not stated)
- GI50 (P388/ADR): > 100 µM (inactive)
- GI50 (SN12K1): > 100 µM (inactive)
- GI50 (P388): > 100 µM (inactive)

SMILES: O=C(Nc1nc(-c2ccccn2)cs1)c1cc(S(=O)(=O)N2CCOCC2)ccc1F
- IC50 (Nonstructural protein 1): 7.21 µM (active)
- IC50 (H9c2): 39.8 µM (inactive)

SMILES: Cc1cc(N2CCN(C(=O)Nc3ccccc3C#N)CC2)c2ccccc2n1
- IC50 [7]: 21.3 µM (inactive)

SMILES: Cc1ccccc1N/C(SCc1cccc(Br)c1)=C(/C#N)C(N)=O
- IC50 [8]: > 80 µM (inactive)

SMILES: CC(=O)OC1CCC2(C)C3CCC4(C)C(c5ccc(=O)oc5)CC5OC54C3CCC2(O)C1 (configuration not stated)
- GI50 (P388/ADR): > 200 µM (inactive)
- GI50 (SN12K1): 0.948 µM (active)
- GI50 (P388): > 200 µM (inactive)

SMILES: COc1ccc(-c2cc(-c3nnc(COC(=O)C4CC4)o3)c3ccccc3n2)cc1OC
- IC50 (H9c2): > 79 µM (inactive)
- AC50 [12]: > 52 µM (inactive)
- AC50 [13]: 43.2 µM (active)
- AC50 [14]: > 52 µM (inactive)

SMILES: O=C(Nc1ccccn1)c1sc2cc([N+](=O)[O-])ccc2c1Cl
- IC50 [8]: > 80 µM (inactive)

SMILES: C[C@H]1CN([C@@H](C)CO)C(=O)Cc2cc(NC(=O)Nc3ccc4c(c3)OCO4)ccc2O[C@H]1CN(C)Cc1ccc(C(F)(F)F)cc1
- AC50 [1]: 7.92 µM (active)

SMILES: C[C@@H]1CN([C@H](C)CO)C(=O)c2cccc(NC(=O)Nc3ccc4c(c3)OCO4)c2O[C@@H]1CN(C)Cc1ccc(C(=O)Nc2ccccc2N)cc1
- AC50 [1]: 2.84 µM (active)

SMILES: Nc1ccc2[nH]c(CCCCCCCCc3nc4cc(N)ccc4[nH]3)nc2c1
- IC50 (Large T antigen): 18.7 µM (active)
- IC50 [7]: 11.4 µM (active)

SMILES: CCN(CC)CC[n+]1ccc2c(C)c3[nH]c4ccc(O)cc4c3c(C)c2c1
- GI50 (P388/ADR): 2.21 µM (inactive)
- GI50 (SN12K1): 0.948 µM (active)
- GI50 (P388): 0.012 µM (active)
- AC50 (Cytochrome P450 2D6): 6.31 µM (inconclusive)

SMILES: C[C@H](CO)N1C[C@H](C)[C@H](CN(C)Cc2ccncc2)Oc2ncc(C#CCC3CCCCC3)cc2C1=O
- AC50 [12]: 16.1 µM (active)
- AC50 [15]: 15.3 µM (active)
- AC50 [13]: 30 µM (active)
- AC50 [16]: 63.3 µM (active)
